Results taken from ChEMBL document CHEMBL5729030, “Compound as selective JAK inhibitor, and salt and therapeutic use thereof” (2022).

What was measured:
[1] = target: T1, Tyrosine-protein kinase JAK3 (Homo sapiens, UniProt P52333); experiment: (§1) Inhibition of JAK: The study of the effect of compounds on the activity of purified recombinant JAK was performed by studying the inhibitory activity of the compounds on JAK from the enzymatic level. The experimental principle is to use a luminescence kinase assay to detect the ADP content produced by the reaction of JAK with the substrate Poly (4:1 Glu, Tyr) peptide: after ADP is converted to ATP, ATP can act as a substrate for the Ultra-Glo luciferase catalytic reaction, producing an optical signal. The luminescence signal is positively correlated with the amount of ADP and kinase activity. Therefore, the inhibitory effect of the compounds on the recombinant JAK was determined by observing the luminescence signal produced by the reaction of JAK and the substrate, and was expressed by IC50.
T1 sequence (P52333 whole entry): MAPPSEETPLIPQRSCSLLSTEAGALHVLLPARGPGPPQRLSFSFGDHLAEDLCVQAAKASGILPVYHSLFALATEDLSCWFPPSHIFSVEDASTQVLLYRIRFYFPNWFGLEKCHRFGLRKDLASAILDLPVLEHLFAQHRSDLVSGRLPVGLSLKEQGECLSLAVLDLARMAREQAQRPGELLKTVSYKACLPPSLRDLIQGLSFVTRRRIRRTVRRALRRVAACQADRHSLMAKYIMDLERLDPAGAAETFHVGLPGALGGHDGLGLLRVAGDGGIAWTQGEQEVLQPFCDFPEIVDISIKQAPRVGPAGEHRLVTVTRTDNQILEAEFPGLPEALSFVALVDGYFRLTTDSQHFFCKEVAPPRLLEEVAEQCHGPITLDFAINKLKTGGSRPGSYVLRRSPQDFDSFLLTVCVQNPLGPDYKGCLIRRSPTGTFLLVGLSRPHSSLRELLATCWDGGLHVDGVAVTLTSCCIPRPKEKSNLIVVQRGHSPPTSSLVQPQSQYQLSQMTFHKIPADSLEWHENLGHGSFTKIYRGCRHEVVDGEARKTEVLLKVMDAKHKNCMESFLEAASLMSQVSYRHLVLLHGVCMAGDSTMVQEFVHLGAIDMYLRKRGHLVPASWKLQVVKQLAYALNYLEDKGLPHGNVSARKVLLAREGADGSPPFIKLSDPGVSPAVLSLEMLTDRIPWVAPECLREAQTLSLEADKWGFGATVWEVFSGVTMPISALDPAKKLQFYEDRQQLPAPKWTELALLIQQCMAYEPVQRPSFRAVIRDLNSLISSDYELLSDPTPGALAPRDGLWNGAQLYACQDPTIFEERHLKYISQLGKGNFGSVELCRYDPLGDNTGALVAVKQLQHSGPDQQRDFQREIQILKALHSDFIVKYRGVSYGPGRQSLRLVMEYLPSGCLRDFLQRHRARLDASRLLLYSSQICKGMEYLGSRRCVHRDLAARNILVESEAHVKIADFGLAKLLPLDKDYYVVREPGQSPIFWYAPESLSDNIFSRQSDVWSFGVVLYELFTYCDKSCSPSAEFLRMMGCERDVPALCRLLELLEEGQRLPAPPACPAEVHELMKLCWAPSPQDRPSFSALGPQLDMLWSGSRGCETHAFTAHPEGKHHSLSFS

[2] = target: Tyrosine-protein kinase JAK2 (Homo sapiens, UniProt O60674); experiment: as §1
Chain of Tyrosine-protein kinase JAK2 (O60674 whole entry): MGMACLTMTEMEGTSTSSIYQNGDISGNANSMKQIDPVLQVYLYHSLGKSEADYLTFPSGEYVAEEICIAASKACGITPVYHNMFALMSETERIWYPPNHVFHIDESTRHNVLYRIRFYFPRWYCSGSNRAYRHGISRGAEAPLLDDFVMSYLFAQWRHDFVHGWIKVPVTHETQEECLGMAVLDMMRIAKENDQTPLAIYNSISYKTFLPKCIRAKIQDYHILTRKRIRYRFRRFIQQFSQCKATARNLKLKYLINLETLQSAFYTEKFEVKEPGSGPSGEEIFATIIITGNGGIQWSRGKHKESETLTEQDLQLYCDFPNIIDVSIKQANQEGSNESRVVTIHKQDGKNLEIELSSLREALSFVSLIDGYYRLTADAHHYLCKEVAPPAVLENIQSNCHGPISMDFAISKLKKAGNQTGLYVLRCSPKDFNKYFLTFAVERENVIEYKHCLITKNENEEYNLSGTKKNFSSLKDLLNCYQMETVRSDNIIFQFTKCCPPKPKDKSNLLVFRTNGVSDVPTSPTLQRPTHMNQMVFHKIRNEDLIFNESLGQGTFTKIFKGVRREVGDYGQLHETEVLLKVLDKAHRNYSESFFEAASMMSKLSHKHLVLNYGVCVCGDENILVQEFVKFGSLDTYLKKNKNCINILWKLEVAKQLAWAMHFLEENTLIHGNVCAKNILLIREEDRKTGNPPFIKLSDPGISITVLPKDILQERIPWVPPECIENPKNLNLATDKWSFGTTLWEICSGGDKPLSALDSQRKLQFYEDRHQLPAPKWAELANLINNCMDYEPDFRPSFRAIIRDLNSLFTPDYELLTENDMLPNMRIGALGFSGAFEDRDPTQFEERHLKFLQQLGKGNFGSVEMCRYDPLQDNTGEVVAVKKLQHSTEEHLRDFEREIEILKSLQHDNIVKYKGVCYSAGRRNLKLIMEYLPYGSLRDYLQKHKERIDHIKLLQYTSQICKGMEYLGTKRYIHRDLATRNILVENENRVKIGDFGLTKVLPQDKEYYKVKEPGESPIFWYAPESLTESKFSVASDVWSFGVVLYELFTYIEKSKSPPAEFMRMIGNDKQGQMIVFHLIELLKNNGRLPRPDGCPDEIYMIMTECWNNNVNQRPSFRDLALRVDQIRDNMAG

SMILES | IC50 [1] [µM] | IC50 [2] [µM]
CS(=O)(=O)C1CN(Cc2ccc(-c3cccn4nc(NC(=O)C5CC5)nc34)cc2F)C1 | > 0.05 | > 0.05
CS(=O)(=O)C1CN(Cc2ccc(-c3cccc4nc(NC(=O)C5CC5)nn34)cc2F)C1 | > 0.05 | > 0.05
